# Assay results taken from paper PMC4657912, “Purification and Characterization of a Novel NAD(P)^+-Farnesol Dehydrogenase from Polygonum minus Leaves” (PLoS ONE, 2015).
# Assays:
# [1] = system: T1, P. minus farnesol dehydrogenase; NAD(P)+-dependent farnesol dehydrogenase; assay: NADH formation at […] nm, Lineweaver-Burk; format: biochemical, Persicaria minor; details: 100 mM glycine-NaOH pH 9.5, 35 C, read-out: K m value
# T1 construct: native, purified from leaves; gene not cloned
# [2] = system: T1, P. minus farnesol dehydrogenase; NAD(P)+-dependent farnesol dehydrogenase; assay: NADPH formation at […] nm, Lineweaver-Burk; format: biochemical, Persicaria minor; details: 1.0 mM trans,trans-farnesol (standard assay), 100 mM glycine-NaOH pH 9.5, 35 C; substrate range stated 0.5-1.5 mM, extrapolated; read-out: K m value
# [3] = 1.0 mM NAD+ (standard assay), oxidation
"Km [1, 3]",SMILES,also measured
770 µM,C=C(C)[C@@H]1CC=C(CO)CC1 [(S)-Perillyl alcohol],
710 µM,C=C(C)C1CC=C(C)C(O)C1 (stereo not shown) [Carveol],
1040 µM,OC/C=C/c1ccccc1 [Cinnamyl alcohol],
420 µM,"CC(C)=CCC/C(C)=C\CC/C(C)=C\CO [Cis, cis-farnesol]",
330 µM,"CC(C)=CCC/C(C)=C/CC/C(C)=C\CO [Cis, trans-farnesol]",
,"CC(C)=CCC/C(C)=C/CO [Geraniol, (trans)-3,7-dimethyl-2,6-octadien-1-ol]","Km ([1]; 1.0 mM NAD+ (standard assay), oxidation, substrate range 0.5-1.5 mM, extrapolated): 12500 µM"
,NC(=O)c1ccc[n+]([C@@H]2O[C@H](COP(=O)(O)OP(=O)(O)OC[C@H]3O[C@@H](n4cnc5c(N)ncnc54)[C@H](OP(=O)(O)O)[C@@H]3O)[C@@H](O)[C@H]2O)c1 [NADP^+],Km [2]: 40000 µM
,NC(=O)c1ccc[n+]([C@@H]2O[C@H](COP(=O)(O)OP(=O)(O)OC[C@H]3O[C@@H](n4cnc5c(N)ncnc54)[C@H](O)[C@@H]3O)[C@@H](O)[C@H]2O)c1 [NAD^+],"Km ([1]; 1.0 mM trans,trans-farnesol (standard assay)): 740 µM"
170 µM,"CC(C)=CCC/C(C)=C/CC/C(C)=C/CO [Trans, trans-farnesol, trans,trans-3,7,11-trimethyl-2,6,10-dodecatrien-1-ol]",
1000 µM,C=CC(C)(O)CCC=C(C)CCC=C(C)C (stereo not shown) [nerolidol],
